In ChEMBL document CHEMBL1201862, “PubChem BioAssay data set” (2004):
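Compound exposure: 48 hours, 5 concentrations, 96-well plates. GI50: concentration for 50% inhibition of growth.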 Activity calls are given as the source filed them. No stated cut-off is given here; in the data, active = GI50 up to about 1.1 µM and inactive = higher.

Experiments:
Assay in all cases: NCI-60 cell line screen, 48 h
[1] = system: A549
[2] = system: ACHN
[3] = system: CCRF-CEM
[4] = system: COLO 205
[5] = system: HCC 2998
[6] = system: HT-29
[7] = system: LOX IMVI
[8] = system: Malme-3M
[9] = system: NCI-H460
[10] = system: OVCAR-3
[11] = system: RXF 393
[12] = system: SF-539
[13] = system: SK-MEL-5
[14] = system: SR
[15] = system: SW-620
[16] = system: U-251
[17] = system: UO-31
[18] = system: MDA-MB-231
[19] = system: PC-3
[20] = system: MCF7

SMILES | GI50 [1] | GI50 [2] | GI50 [3] | GI50 [4] | GI50 [5] | GI50 [6] | GI50 [7] | GI50 [8] | GI50 [9] | GI50 [10] | GI50 [11] | GI50 [12] | GI50 [13] | GI50 [14] | GI50 [15] | GI50 [16] | GI50 [17] | GI50 [18] | GI50 [19] | GI50 [20]
O=C(C(=O)c1cc2ccccc2[nH]1)c1cc2ccccc2[nH]1 | > 347 µM (inactive) | > 347 µM (inactive) | > 247 µM (inactive) | > 347 µM (inactive) | > 347 µM (inactive) | > 347 µM (inactive) | > 347 µM (inactive) | 152 µM (inactive) | > 321 µM (inactive) | 12.8 µM (inactive) | 91.4 µM (inactive) | > 347 µM (inactive) | > 301 µM (inactive) | 12.3 µM (inactive) | 153 µM (inactive) | > 347 µM (inactive) | > 347 µM (inactive) | – | – | –
CN(C)CCNC1=C(Cl)C(=O)c2c(O)ccc(O)c2C1=O | 2.58 µM (inactive) | 3.5 µM (inactive) | 2.01 µM (inactive) | 1.93 µM (inactive) | 1.79 µM (inactive) | 1.85 µM (inactive) | – | 2.09 µM (inactive) | 1.95 µM (inactive) | 1.98 µM (inactive) | 4.34 µM (inactive) | 1.73 µM (inactive) | 1.54 µM (inactive) | – | 2.02 µM (inactive) | 1.84 µM (inactive) | 2.02 µM (inactive) | 1.38 µM (inactive) | 6.31 µM (inactive) | –
O=C1C(Cl)=C(NCCN2CCOCC2)C(=O)c2c(O)ccc(O)c21 | 2.12 µM (inactive) | 2.7 µM (inactive) | 1.56 µM (inactive) | 1.5 µM (inactive) | 1.89 µM (inactive) | 2.03 µM (inactive) | 1.33 µM (inactive) | 1.84 µM (inactive) | 1.58 µM (inactive) | 2.49 µM (inactive) | – | 1.75 µM (inactive) | 1.09 µM (active) | – | 1.33 µM (inactive) | 2.21 µM (inactive) | 2.36 µM (inactive) | 2.39 µM (inactive) | 2.2 µM (inactive) | 1.42 µM (inactive)
CC(C)CN1CN(c2ccccc2)C2(CCN(CC(C)(c3ccc(F)cc3)C3OCCO3)CC2)C1=O (stereo unspecified) | 5.09 µM (inactive) | 4.16 µM (inactive) | 3.55 µM (inactive) | 1.65 µM (inactive) | 2.39 µM (inactive) | 1.73 µM (inactive) | 2.08 µM (inactive) | 4.89 µM (inactive) | – | 10.3 µM (inactive) | 6.25 µM (inactive) | 5.18 µM (inactive) | 2.02 µM (inactive) | 2.77 µM (inactive) | 3.17 µM (inactive) | 4.75 µM (inactive) | 2.7 µM (inactive) | – | 3.55 µM (inactive) | 4.11 µM (inactive)
CSCCC(NC(=O)Cc1ccc(C(=O)c2ccccc2)cc1)C(=O)O (stereo unspecified) | > 100 µM (inactive) | > 100 µM (inactive) | > 100 µM (inactive) | > 100 µM (inactive) | > 100 µM (inactive) | > 100 µM (inactive) | > 100 µM (inactive) | > 100 µM (inactive) | > 100 µM (inactive) | > 100 µM (inactive) | > 100 µM (inactive) | > 100 µM (inactive) | > 100 µM (inactive) | – | > 100 µM (inactive) | > 100 µM (inactive) | > 100 µM (inactive) | > 100 µM (inactive) | > 100 µM (inactive) | > 100 µM (inactive)
O=c1c2cccc3cccc(c4oc5c6cccc7cccc(c(=O)c5c14)c76)c32 | 2.06 µM (inactive) | 11.6 µM (inactive) | 5.47 µM (inactive) | 10.9 µM (inactive) | 27.2 µM (inactive) | 13.8 µM (inactive) | 12.2 µM (inactive) | 12.5 µM (inactive) | 12.5 µM (inactive) | 12 µM (inactive) | 11.2 µM (inactive) | 15.8 µM (inactive) | 15.2 µM (inactive) | 7.66 µM (inactive) | 11.8 µM (inactive) | 12.7 µM (inactive) | 13.5 µM (inactive) | – | – | –
O=C1c2ccccc2/C(=N\c2ccc3ccccc3c2)C1(C1=C(c2ccccc2)/C(=N/c2ccc3ccccc3c2)c2ccccc21)c1ccccc1 (stereo unspecified) | 11.1 µM (inactive) | 2.53 µM (inactive) | 11.2 µM (inactive) | 6.34 µM (inactive) | 11.5 µM (inactive) | 3.48 µM (inactive) | 4.01 µM (inactive) | – | 3.32 µM (inactive) | 73.3 µM (inactive) | > 24 µM (inactive) | 6.15 µM (inactive) | 2.17 µM (inactive) | – | 36.6 µM (inactive) | 9.75 µM (inactive) | 4.65 µM (inactive) | 15.3 µM (inactive) | 4.41 µM (inactive) | 4.05 µM (inactive)
CCCCCCCCC(O)C#CC(N)=O (stereo unspecified) | 14.7 µM (inactive) | 12.4 µM (inactive) | 15.5 µM (inactive) | – | 10.6 µM (inactive) | 12.1 µM (inactive) | 11.7 µM (inactive) | 16.7 µM (inactive) | 9.1 µM (inactive) | 7.35 µM (inactive) | 13.7 µM (inactive) | 12.5 µM (inactive) | 12 µM (inactive) | 12.9 µM (inactive) | 14.1 µM (inactive) | 8.34 µM (inactive) | 10 µM (inactive) | – | – | –
CS(=O)(=O)Nc1ccc(Nc2ccnc3ccc4[nH]ccc4c23)cc1 | 19.5 µM (inactive) | 21.5 µM (inactive) | 4.35 µM (inactive) | 9.1 µM (inactive) | 4.98 µM (inactive) | 18.4 µM (inactive) | 9.12 µM (inactive) | 3.88 µM (inactive) | 15.2 µM (inactive) | 10.3 µM (inactive) | 14 µM (inactive) | – | 11.7 µM (inactive) | – | 8.32 µM (inactive) | 9.93 µM (inactive) | 29.7 µM (inactive) | 8.93 µM (inactive) | 12.4 µM (inactive) | 4.89 µM (inactive)
O=C1Nc2ccccc2N/C1=C\C(=O)c1ccccc1O | > 100 µM (inactive) | > 100 µM (inactive) | > 100 µM (inactive) | > 100 µM (inactive) | > 100 µM (inactive) | > 100 µM (inactive) | > 100 µM (inactive) | > 100 µM (inactive) | > 100 µM (inactive) | > 100 µM (inactive) | > 100 µM (inactive) | – | > 100 µM (inactive) | > 100 µM (inactive) | > 100 µM (inactive) | > 100 µM (inactive) | > 100 µM (inactive) | – | – | –
O=c1[nH]c(=O)n(C2OC(CO)C(O)C2O)cc1OCc1ccccc1 (stereo unspecified) | > 87.3 µM (inactive) | > 100 µM (inactive) | > 60.5 µM (inactive) | > 64.7 µM (inactive) | > 100 µM (inactive) | > 100 µM (inactive) | > 31.6 µM (inactive) | > 100 µM (inactive) | > 66.7 µM (inactive) | > 100 µM (inactive) | > 57.4 µM (inactive) | > 100 µM (inactive) | > 100 µM (inactive) | > 50.1 µM (inactive) | > 57 µM (inactive) | > 58.2 µM (inactive) | > 100 µM (inactive) | – | – | –
CC(=O)Nc1ccc(S(=O)(=O)N/N=C/CN2C(=O)c3ccccc3C2=O)cc1 | > 100 µM (inactive) | > 100 µM (inactive) | > 100 µM (inactive) | > 100 µM (inactive) | > 100 µM (inactive) | > 100 µM (inactive) | > 100 µM (inactive) | > 100 µM (inactive) | > 100 µM (inactive) | – | 85.1 µM (inactive) | > 100 µM (inactive) | > 100 µM (inactive) | > 100 µM (inactive) | > 100 µM (inactive) | > 100 µM (inactive) | > 100 µM (inactive) | – | – | –
CN(C(=O)OC(C)(C)C)[C@H]1CCCC[C@H]1N1CCCC1 | > 100 µM (inactive) | > 100 µM (inactive) | 0.0129 µM (active) | > 100 µM (inactive) | – | > 100 µM (inactive) | > 100 µM (inactive) | > 100 µM (inactive) | – | > 100 µM (inactive) | – | > 100 µM (inactive) | > 100 µM (inactive) | > 100 µM (inactive) | > 100 µM (inactive) | > 100 µM (inactive) | > 100 µM (inactive) | > 100 µM (inactive) | > 100 µM (inactive) | > 100 µM (inactive)
COc1ccc(CN[C@H]2CCc3cc(OC)c(OC)c(OC)c3-c3ccc(SC)c(=O)cc32)c(OC)c1OC | 0.0459 µM (active) | 0.063 µM (active) | 0.0356 µM (active) | 0.0234 µM (active) | 0.0202 µM (active) | 0.0205 µM (active) | 0.0352 µM (active) | 0.0484 µM (active) | 0.026 µM (active) | 0.0235 µM (active) | 0.0181 µM (active) | 0.0211 µM (active) | 0.0326 µM (active) | 0.0167 µM (active) | 0.0416 µM (active) | 0.0194 µM (active) | 0.132 µM (active) | – | – | –
Nc1ncnc2c1ncn2COC/C=C/I | > 100 µM (inactive) | > 100 µM (inactive) | 85.3 µM (inactive) | > 100 µM (inactive) | > 100 µM (inactive) | > 100 µM (inactive) | > 100 µM (inactive) | > 100 µM (inactive) | > 100 µM (inactive) | > 100 µM (inactive) | > 100 µM (inactive) | > 100 µM (inactive) | > 100 µM (inactive) | > 100 µM (inactive) | > 100 µM (inactive) | > 100 µM (inactive) | > 100 µM (inactive) | – | – | –
C[N+]1(CCCl)CC[N+](C)(CCCl)CC1 (stereo unspecified) | > 100 µM (inactive) | > 100 µM (inactive) | > 100 µM (inactive) | > 100 µM (inactive) | – | > 100 µM (inactive) | > 100 µM (inactive) | > 100 µM (inactive) | > 100 µM (inactive) | > 100 µM (inactive) | > 100 µM (inactive) | > 100 µM (inactive) | > 100 µM (inactive) | – | > 100 µM (inactive) | > 100 µM (inactive) | 99.5 µM (inactive) | > 100 µM (inactive) | > 100 µM (inactive) | > 100 µM (inactive)
